In patent publication US20070148211A1, “PROCESSES FOR MAKING PARTICLE-BASED PHARMACEUTICAL FORMULATIONS FOR ORAL ADMINISTRATION” (Acusphere, Inc., priority 2005, published 2007):

Experiment: Visual evaluation of dispersibility of celecoxib powders after reconstitution in 0.01N HCl
Assay type: physicochemical
Experimental: The unprocessed celecoxib, the blended celecoxib, and the jet milled blended celecoxib were analyzed using visual inspection and by light microscopy (performed on a hemacytometer slide) following reconstitution in 0.01N HCl. FIGS. 5A, 5B, and 5C show the particles of the bulk celecoxib, the blended powder, and the jet-milled blended powder, respectively. The quality of the suspensions are described in Table 2.

Cc1ccc(-c2cc(C(F)(F)F)nn2-c2ccc(S(N)(=O)=O)cc2)cc1 [Celecoxib/no blending or jet milling, celecoxib]
Visual Evaluation of Suspension: Poor suspension containing many
